Experimental data: the supplement of paper PMC11451515

System: P12-Ichikawa
Test: cell viability relative to DMSO control; higher = less cytotoxic
Conditions: 48 h
Summary of the method: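 Viability is expressed as a percentage of DMSO wells within each plate, and cell-free wells serve as background. Seeding densities in the 1536-well plates (5 μl) were 500 cells/well for NOMO1 or SEM leukemia cells and 1000 cells/well for P12-Ichikawa. Each line was adapted for at least four passages in each medium. Library compounds in DMSO were pin-dosed at 47 μM to 0.79 nM (11 points, threefold), and CellTiter-Glo One luminescence was read after 48 h at 37°C.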

[1] = HPLM + 10% dialyzed FBS, 0.000781 µM
[2] = HPLM + 10% dialyzed FBS, 0.00234 µM
[3] = HPLM + 10% dialyzed FBS, 0.00702 µM
[4] = HPLM + 10% dialyzed FBS, 0.0211 µM
[5] = HPLM + 10% dialyzed FBS, 0.0632 µM
[6] = HPLM + 10% dialyzed FBS, 0.19 µM
[7] = HPLM + 10% dialyzed FBS, 0.569 µM
[8] = HPLM + 10% dialyzed FBS, 1.71 µM
[9] = HPLM + 10% dialyzed FBS, 5.12 µM
[10] = HPLM + 10% dialyzed FBS, 15.4 µM
[11] = HPLM + 10% dialyzed FBS, 46.1 µM
[12] = RPMI 5 mM glucose + 10% FBS, 0.000781 µM
[13] = RPMI 5 mM glucose + 10% FBS, 0.00234 µM
[14] = RPMI 5 mM glucose + 10% FBS, 0.00702 µM
[15] = RPMI 5 mM glucose + 10% FBS, 0.0211 µM
[16] = RPMI 5 mM glucose + 10% FBS, 0.0632 µM
[17] = RPMI 5 mM glucose + 10% FBS, 0.19 µM
[18] = RPMI 5 mM glucose + 10% FBS, 0.569 µM
[19] = RPMI 5 mM glucose + 10% FBS, 1.71 µM
[20] = RPMI 5 mM glucose + 10% FBS, 5.12 µM
[21] = RPMI 5 mM glucose + 10% FBS, 15.4 µM
[22] = RPMI 5 mM glucose + 10% FBS, 46.1 µM
[23] = RPMI 5 mM glucose + 10% dialyzed FBS, 0.000781 µM
[24] = RPMI 5 mM glucose + 10% dialyzed FBS, 0.00234 µM
[25] = RPMI 5 mM glucose + 10% dialyzed FBS, 0.00702 µM
[26] = RPMI 5 mM glucose + 10% dialyzed FBS, 0.0211 µM
[27] = RPMI 5 mM glucose + 10% dialyzed FBS, 0.0632 µM
[28] = RPMI 5 mM glucose + 10% dialyzed FBS, 0.19 µM
[29] = RPMI 5 mM glucose + 10% dialyzed FBS, 0.569 µM
[30] = RPMI 5 mM glucose + 10% dialyzed FBS, 1.71 µM
[31] = RPMI 5 mM glucose + 10% dialyzed FBS, 5.12 µM
[32] = RPMI 5 mM glucose + 10% dialyzed FBS, 15.4 µM
[33] = RPMI 5 mM glucose + 10% dialyzed FBS, 46.1 µM

Row | SMILES | cell viability [1] [%] | cell viability [2] [%] | cell viability [3] [%] | cell viability [4] [%] | cell viability [5] [%] | cell viability [6] [%] | cell viability [7] [%] | cell viability [8] [%] | cell viability [9] [%] | cell viability [10] [%] | cell viability [11] [%] | cell viability [12] [%] | cell viability [13] [%] | cell viability [14] [%] | cell viability [15] [%] | cell viability [16] [%] | cell viability [17] [%] | cell viability [18] [%] | cell viability [19] [%] | cell viability [20] [%] | cell viability [21] [%] | cell viability [22] [%] | cell viability [23] [%] | cell viability [24] [%] | cell viability [25] [%] | cell viability [26] [%] | cell viability [27] [%] | cell viability [28] [%] | cell viability [29] [%] | cell viability [30] [%] | cell viability [31] [%] | cell viability [32] [%] | cell viability [33] [%]
1 | O=C1CCC[C@@H]2[C@H]3CCC[N+]4([O-])CCC[C@@H](CN12)[C@@H]34 (some centres not stated) | 88.3 | 89.2 | 100 | 102 | 98.8 | 92.9 | 105 | 102 | 89.5 | 98.6 | 97.7 | 83.5 | 80.8 | 89.7 | 95.1 | 95.5 | 97.2 | 87.7 | 94.7 | 87.3 | 99.9 | 88 | 78.2 | 84.9 | 94.1 | 94 | 93 | 83.5 | 81.4 | 90.8 | 90 | 89.6 | 89.2
2 | CN[C@H]1[C@H](O[C@@H]2[C@H](O[C@@H]3[C@@H](O)[C@@H](O)[C@@H](NC(=N)N)[C@@H](O)[C@H]3NC(=N)N)O[C@H](C)[C@@]2(O)C=O)O[C@@H](CO)[C@@H](O)[C@H]1O | 117 | 117 | 120 | 108 | 112 | 115 | 110 | 110 | 99.9 | 108 | 111 | 108 | 109 | 107 | 112 | 120 | 122 | 102 | 95.5 | 94.7 | 97.8 | 103 | 118 | 115 | 136 | 123 | 112 | 105 | 89.3 | 86 | 105 | 104 | 116
3 | CN1CC/C(CC1)=C3\c4ccccc4CC(=O)c2sccc23 | 117 | 127 | 123 | 120 | 119 | 129 | 134 | 126 | 129 | 120 | 109 |  |  |  |  |  |  |  |  |  |  |  |  |  |  |  |  |  |  |  |  |  | 
4 | CCc1c(O)cc(O)c(C(=O)c2ccc(OCCN3CCOCC3)c(OC)c2)c1CC(=O)N(CCOC)CCOC | 102 | 105 | 118 | 112 | 112 | 105 | 104 | 87.6 | 59.9 | 41.1 | 40.9 | 100 | 101 | 113 | 105 | 108 | 103 | 93.5 | 78 | 41.1 | 32.7 | 35.4 | 106 | 102 | 105 | 110 | 110 | 104 | 85 | 84.5 | 42.6 | 32 | 35
5 | O=[S+]([O-])(CCSSCC[S+](=O)([O-])[O][Na])[O][Na] | 105 | 110 | 114 | 124 | 121 | 124 | 129 | 120 | 126 | 123 | 129 | 97.4 | 111 | 107 | 111 | 121 | 116 | 133 | 132 | 124 | 119 | 118 | 108 | 133 | 119 | 127 | 134 | 127 | 134 | 126 | 130 | 139 | 133
6 | O=C(O)[C@@H](c1ccc(OCc2ccc3ccccc3n2)cc1)C1CCCC1 | 113 | 114 | 106 | 109 | 109 | 102 | 107 | 99.6 | 106 | 102 | 98.7 | 116 | 116 | 110 | 110 | 102 | 106 | 107 | 107 | 92.8 | 98 | 96.9 | 108 | 112 | 112 | 113 | 108 | 109 | 106 | 101 | 95.8 | 102 | 100
7 | CN1C2=CC(=O)/C(=N/NC(N)=O)C=C2CC1S(=O)(=O)[O-].[Na+] (configuration not stated) | 105 | 112 | 112 | 112 | 108 | 113 | 115 | 115 | 110 | 112 | 112 | 103 | 112 | 108 | 112 | 109 | 118 | 118 | 115 | 113 | 112 | 106 | 105 | 108 | 105 | 108 | 111 | 113 | 123 | 112 | 110 | 117 | 110
8 | N#CC1(c2ccc(NC(=O)c3cccnc3NCc3ccncc3)cc2)CCCC1 | 120 | 123 | 113 | 116 | 116 | 110 | 108 | 104 | 106 | 77.8 | 102 | 119 | 108 | 123 | 107 | 122 | 111 | 113 | 109 | 102 | 110 | 98.9 | 118 | 122 | 115 | 109 | 113 | 114 | 103 | 113 | 103 | 96.3 | 90.8
